Source: patent US20260258502A1, “METHODS AND REAGENTS FOR DETECTION OF CIRCULAR DNA MOLECULES IN BIOLOGICAL SAMPLES” (priority 2022, published 2026)

Test system: Human TK6 cells
Test: Duplex sequencing (DS) of human TK6 cells treated with genotoxic compounds: putative DNA circle frequency and mutation frequency
Assay type: cell-based
Settings: detected by DS, dose groups vs untreated group, proxy for clastogenicity
Method: To assess whether DNA circle frequency is a proxy for clastogenicity, DS data for various genotoxic agents were re-analyzed. ENU is a well-known potent mutagen and clastogen.
Human TK6 cells were treated with different potentially genotoxic compounds. DS libraries were prepared with 500 ng of DNA input. […] FIG. 10A-10B show the frequency of putative circles, calculated as frequency=(#circles detected)/(#duplex bases sequenced).

CCN(N=O)C(N)=O [ENU]
frequency of putative DNA circles per duplex base pair (#circles detected)/(#duplex bases sequenced): increased candidate DNA circle frequency in a dose-dependent manner, reaching statistical significance in the highest dose group
